Counter-ions that a name gives are not always drawn.
How the values were obtained:
[1] = target: T1, Pgp (Homo sapiens, UniProt P08183); experiment: cell-based
Protocol: (§1) KGN cells, a human granulosa cell line, were grown in DMEM^29. OVCAR-3 and SK-OV-3 cells were grown in Roswell Park Memorial Institute medium (RPMI; Invitrogen). Both media were supplemented with 10% fetal bovine serum (FBS) (Thermo Fisher Scientific, Waltham, Mass.) and 1% penicillin/streptomycin and grown at 37° C. and 10% CO2. Cells were trypsinized using 0.05% trypsin and resuspended to the desired cell concentration. Spheroids that were pre-stained were formed from cells incubated with 5 μM CellTracker™ Red CMPTX, CellTracker™ Green CMFDA, or CellTracker™ Blue CMAC (Invitrogen) in serum-free DMEM for 1 hour prior to trypsinization. 75 μl of the cell suspension was pipetted into the seeding chamber of each gel. Cells were allowed to settle for 20 minutes and 4 mL of medium was added. Cells self-assembled for 24 hours to form spheroids before experimentation.
(§2) Quantitative image analysis was performed using a custom MATLAB (Mathworks, Natick, Mass.) program. Briefly, fifty evenly spaced radii were drawn across each spheroid and fluorescence at each pixel was averaged. […] Total spheroid fluorescence was determined by the integration of the fluorescent profiles (Equation 2). To compare data across experiments, we normalized the spheroids to the fluorescence per depth of single cells at the final time point.
(§3) To measure uptake of calcein-AM and transport of calcein, medium was removed from the hydrogels containing self-assembled KGN spheroids (24 hours), and replaced with serum-free DMEM containing 1 μM calcein-AM (Invitrogen). […] Images were taken once per hour for 11 hours, at 37° C. and 10% CO2.
(§4) Hydrogels were equilibrated with a drug-containing medium overnight at 37° C. and 10% CO2, and spheroids were self-assembled for 24 hours in their respective drug concentration. […] A working solution of carbenoxolone (Sigma) was prepared by diluting appropriate volumes of a 10 mM stock solution into serum-free medium. Spheroids were assembled for 24 hours and then pretreated with carbenoxolone for 5 hours prior to adding calcein-AM for the uptake assay. Medium containing drug and calcein-AM were used for the uptake assay.

[2] = target: T2, gap junctions (Homo sapiens, UniProt P17302); experiment: transport of calcein from outer shell to core of KGN spheroids (compartmentalization analysis); format: cell-based
T2 construct: endogenous in cells; host or cells: KGN human granulosa cell line, self-assembled 3D spheroids
Protocol: as §1, §2, §3, §4
To deconvolve this fluorescent signal into an average 3D radial profile, the spheroid was estimated as a series of concentric spheres (multi-layers). Each layer (shell) was 14 μm in width and contained a homogenous concentration of fluorescent calcein (FIGS. 3C and D). The total fluorescence f(i) at X, layer is sum of the fluorescence contribution from all shells at Xi. Mathematically, the total fluorescence can be written as
[formula] Here, fnorm(j) is the fluorescence/height in the i^th shell and h(i, j) is the height at point (Xi, Yj). Note h(i, i)=0 lies at the centerline of the spheroid. […] Equation (4) results in the following iterative formula: […]
The inner core was taken as about≧14 μm from the center in the smallest dimension to ensure the core contained whole cells.

[3] = system: KGN spheroids; experiment: loss of calcein from calcein-loaded KGN spheroids; format: cell-based, human; settings: after 135 minutes calcein-AM loading
Protocol: To measure uptake of calcein-AM and transport of calcein, medium was removed from the hydrogels containing self-assembled KGN spheroids (24 hours), and replaced with serum-free DMEM containing 1 μM calcein-AM (Invitrogen). Fluorescent imaging of calcein began immediately and images were taken at regular intervals over 135 minutes at 37° C. and 10% CO2. To measure loss or loss of calcein, hydrogels containing KGN spheroids that had been incubated with calcein-AM for 135 minutes, thus loading the spheroids with calcein, were rinsed with DMEM and incubated in DMEM without calcein-AM. Images were taken once per hour for 11 hours, at 37° C. and 10% CO2.

[4] = target: T1, Pgp; settings: 2D, calcein-AM assay, concentrations ranging from 1-100 μM; cited from earlier work
[5] = 1 μM calcein-AM, 75 minutes, n=15
[6] = 5 μM drug, 1 μM calcein-AM, 110 minutes
[7] = 5 μM drug, normalized data, 110 minutes

T2 sequence (P17302 2-382 limits assumed): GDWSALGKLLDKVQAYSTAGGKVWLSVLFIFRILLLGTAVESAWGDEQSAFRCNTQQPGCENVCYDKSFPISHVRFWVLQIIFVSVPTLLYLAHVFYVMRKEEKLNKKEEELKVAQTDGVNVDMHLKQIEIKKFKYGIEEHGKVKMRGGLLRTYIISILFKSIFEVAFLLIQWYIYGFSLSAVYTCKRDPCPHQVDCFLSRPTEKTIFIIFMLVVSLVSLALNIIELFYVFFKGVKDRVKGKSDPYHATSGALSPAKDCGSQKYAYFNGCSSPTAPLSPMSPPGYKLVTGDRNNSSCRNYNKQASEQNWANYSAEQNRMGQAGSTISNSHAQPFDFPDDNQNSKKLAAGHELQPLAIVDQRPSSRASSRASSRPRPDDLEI
T1 sequence (P08183 whole entry): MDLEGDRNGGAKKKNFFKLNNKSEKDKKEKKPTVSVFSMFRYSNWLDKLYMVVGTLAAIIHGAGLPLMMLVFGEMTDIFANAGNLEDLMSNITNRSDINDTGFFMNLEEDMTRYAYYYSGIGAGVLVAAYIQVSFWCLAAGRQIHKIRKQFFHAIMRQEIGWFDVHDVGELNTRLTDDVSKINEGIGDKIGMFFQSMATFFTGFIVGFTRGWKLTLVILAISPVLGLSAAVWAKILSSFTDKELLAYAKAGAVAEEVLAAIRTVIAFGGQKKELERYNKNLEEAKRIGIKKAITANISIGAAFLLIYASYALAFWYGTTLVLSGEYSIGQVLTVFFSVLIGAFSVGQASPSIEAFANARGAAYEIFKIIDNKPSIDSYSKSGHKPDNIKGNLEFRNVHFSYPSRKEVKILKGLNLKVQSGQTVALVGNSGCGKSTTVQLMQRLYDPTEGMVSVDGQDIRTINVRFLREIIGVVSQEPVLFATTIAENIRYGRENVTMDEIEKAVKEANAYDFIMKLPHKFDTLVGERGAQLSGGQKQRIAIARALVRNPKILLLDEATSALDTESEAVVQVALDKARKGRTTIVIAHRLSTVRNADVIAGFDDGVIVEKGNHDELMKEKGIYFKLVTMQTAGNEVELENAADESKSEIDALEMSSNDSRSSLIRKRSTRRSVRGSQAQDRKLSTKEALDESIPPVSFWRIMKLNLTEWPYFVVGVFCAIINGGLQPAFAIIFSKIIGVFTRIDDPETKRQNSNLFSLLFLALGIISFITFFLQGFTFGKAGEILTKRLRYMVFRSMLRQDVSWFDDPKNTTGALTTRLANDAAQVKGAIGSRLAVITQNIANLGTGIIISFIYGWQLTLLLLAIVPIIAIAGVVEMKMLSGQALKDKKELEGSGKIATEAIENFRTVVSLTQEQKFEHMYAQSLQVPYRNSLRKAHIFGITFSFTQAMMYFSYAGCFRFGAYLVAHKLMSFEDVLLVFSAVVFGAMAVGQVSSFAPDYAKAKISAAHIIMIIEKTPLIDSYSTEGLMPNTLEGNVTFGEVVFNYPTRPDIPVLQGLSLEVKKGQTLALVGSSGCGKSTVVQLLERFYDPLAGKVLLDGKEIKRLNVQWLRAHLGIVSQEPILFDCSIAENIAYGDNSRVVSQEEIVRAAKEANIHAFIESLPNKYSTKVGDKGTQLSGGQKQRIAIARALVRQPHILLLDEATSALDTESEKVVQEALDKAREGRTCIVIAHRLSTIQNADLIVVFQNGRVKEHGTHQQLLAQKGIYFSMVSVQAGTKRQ

SMILES	IC50 [1]	calcein in the outer shell, fold higher than controls ([1]; human, 135 min, 100 μM)	percentage of calcein in the core compared to controls [2, 5]	percentage of calcein in the outer shell compared to controls [2, 5]	IC50 ([2]; 1 μM calcein-AM, 75 minutes, read-out: half-maximal response, inhibition of gap junctions (fraction of calcein compartmentalized to outer shell))	calcein in the core, fold less than controls ([2]; CBX 100 μM, 1 μM calcein-AM, 135 minutes)	percentage of calcein in the core ([2]; CBX 100 μM, 135 minutes, n=18, untreated 15±3%)	percentage of calcein in the outer shell ([2]; CBX 100 μM, 135 minutes, n=18, untreated 27±3%)	effect on loss of total spheroid calcein [3]	initial rate of calcein loss from the outer shell ([3]; drug-free medium, control 17±3% per hour, p<0.05)	calcein in the outer shell compared to untreated controls [1, 6]	total concentration of calcein in the spheroids compared to untreated controls [1, 6]	calcein concentration in the core of the spheroid compared to untreated [2, 6]	percentage of calcein in the core compared to control [2, 7]	percentage of calcein in the outer most shell compared to control [2, 7]	percent maximum inhibition [4]
CC1(C)[C@@H](OC(=O)CCC(=O)O)CC[C@]2(C)[C@H]3C(=O)C=C4[C@@H]5C[C@@](C)(C(=O)O)CC[C@]5(C)CC[C@@]4(C)[C@]3(C)CC[C@@H]12 [carbenoxolone]	81 µM	3 fold	reduced	increased	9.4 µM	8 fold	0.5±2%	52±4%	no effect	13±1 % per hour	–	–	–	–	–	–
CN(C)C(=O)C(CCN1CCC(O)(c2ccc(Cl)cc2)CC1)(c1ccccc1)c1ccccc1 [loperamide, loperamide hydrochloride]	–	–	–	–	–	–	–	–	–	–	significantly increased	significantly increased	did not increase	decreased	increased	76.3%
